The subject of series [1] is MCF-7 human breast tumor. Nature of the series: MCF-7 Human Breast Tumor Xenograft Model. It is filed as in vivo, nude mice. The note with it: Breast MCF-7 (2 studies); KPU-02 7.5 mg/kg ip qdx5 + Taxotere Days 1, 3, 5. As to the method:
(§1) Animals used were (exceptions are indicated for individual studies): female nude mice (nu/nu) between 5 and 6 weeks of age (˜20 g, Harlan); group size was 9-10 mice per group unless otherwise indicated.
(§2) Selected novel compounds were administered as monotherapy via the intraperitoneal (i.p.) route at the doses indicated for the individual study; for the combination studies the selected reference chemotherapy agents were injected 15-30 min prior to the compound.
(§3) Saline dilutions are used to achieve the injection concentrations used for the reference compounds.
Female nude mice (˜20 g) were implanted s.c. with 21-day release estrogen (0.25 mg) pellets 24 hours prior to the s.c. implantation with MCF-7 tumor fragments (harvested from s.c. tumors in nude mice hosts). The study then proceeded as described for the HT-29 model, using taxotere as the standard chemotherapy agent.
In this model unless otherwise noted for the individual study, the novel compounds were injected via the intraperitoneal route daily on Days 1-5, inclusive (qdx5); taxotere was administered intravenously on Days 1, 3 and 5 (qodx3).
The doses of the compounds were administered on Days 1, 2, 3, 4, and 7; Taxotere was administered on Days 1, 3 and 7.

In series [2] the test system is N202 mammary tumor vasculature. Nature of the series: Murine syngeneic pseudo-orthotopic breast cancer model, dorsal skinfold chamber. An excerpt:
A murine syngeneic “pseudo-orthotopic” breast cancer model was used to address these issues. […] To create the “pseudo-orthotopic milieu,” the coverslip of a dorsal skinflap chamber was removed and small pieces of mammary fatpad from donor mice were implanted into the chamber. On top of the fatpad graft, tumor spheroids containing N202 mammary tumor cells transduced with Histone (H2B)-green fluorescent protein (GFP) were applied. The use of H2B-GFP transduced cells allows for visualizing tumor growth and monitoring mitosis and apoptosis.
Fluorescence video microscopy allows for the relatively non-invasive study of tumor microcirculation in conscious mice.
Tumor area, blood flow rate, and vascular density within and surrounding the tumor were visualized. Real-time observations were recorded at various time-points using still photos and video microscopy.

The subject of series [3] is P22 rat sarcoma. Type of series: in vivo, rats. The note with it: 15 mg/kg IP. How it is done:
In contrast, blood flow in non-tumor tissues was affected to a much lesser extent at 1 hour (see FIG. 35).

Series [4] has as its system MCF7 cells. Nature of the series: Immunofluorescence microscopy of spindle and interphase microtubules. Type of series: cell-based, human. The note with it: at the IC50 for mitotic block, 20 hours. How it is done:
MCF7 human breast carcinoma cells (American Type Culture Collection, Manassas, Va.) stably transfected with GFP-alpha-tubulin (Clontech, Palo Alto, Calif.) were cultured in Dulbecco's modified Eagle's medium supplemented with 5% fetal bovine serum, 0.1% penicillin/streptomycin and nonessential amino acids (Sigma) in 250-ml tissue culture flasks or 35-mm six-well plates (doubling time, 29 hours) at 37° C. in 5% CO2.
Cells were prepared as for mitotic progression, except that cells were seeded onto poly-L-lysine (50 μg/ml, Sigma) treated coverslips. On the day of staining, cells were rinsed in PBS and fixed in 10% formalin overnight at 37° C. Cells were rinsed in PBS, permeabilized in methanol at −20° C., and hydrated with PBS. Coverslips were treated with 20% normal goat serum in PBS/BSA (1%) for 1 h at room temperature. Cells were incubated in a mouse monoclonal cocktail of anti-alpha- and beta-tubulin, DM1A/DM1B diluted in PBS/BSA for 1 hour at room temperature, then stained with FITC-conjugated secondary antibody and DAPI. Coverslips were mounted using Prolong antifade media (Molecular Probes, Eugene Oreg.).

Series [5] concerns MCF7 cells, GFP-alpha-tubulin. Nature of the series: Analysis of microtubule dynamics, time-lapse microscopy. It is filed as cell-based, human. The note with it: concentrations effecting 25% or 50% of maximal mitotic block.
Series [6] has as its system A549 human non small cell lung tumor. As to the kind of experiment: A549 Human Lung Tumor Xenograft Model. Type of series: in vivo, nude mice. The note with it: Lung A549 (1 study); KPU-02 7.5 mg/kg ip qdx5 + Taxotere Days 1, 3, 5. As to the method: as §1, §2, §3
Animals were implanted s.c. by trocar with fragments of A549 tumors harvested from s.c. growing tumors in nude mice hosts. When the tumor size reached 5 mm×5 mm (about 10-17 days) the animals were matched into treatment and control groups.
A general note: A xenograft is tissue or cells of one species grown in another, often human tumour cells in immunodeficient mice.

The test system of series [7] is MAP-rich microtubules. Nature of the series: Microtubule mean length distributions, transmission electron microscopy. It is filed as biochemical, bovine. The note with it: in words. As to the method:
Transmission electron microscopy was used to determine the mean length distribution of microtubules in the absence or presence of tested agent. At 75 minutes and prior to sedimentation, 10 μl aliquots from the polymer mass experiments were fixed by dilution into 290 μl PEM100-buffered 0.2% glutaraldehyde. Thirty microliters of fixed sample was settled onto formvar-coated 150 ICG mesh electron microscope grids for 90 seconds. Excess sample was wicked off with Whatman filter paper. Thirty microliters of cytochrome C (1 mg/ml) was applied for 30 seconds to enhance protofilament resolution and facilitate negative staining. Uranyl acetate (1.5%) was applied for 20 seconds and the excess was wicked off Grids were viewed in a Jeol electron microscope-1200 EX11 at 2000× and 30,000× magnification. The Zeiss MOPIII was used to determine microtubule length distributions and mean lengths for at least 100 microtubules per sample.

For series [8], the system named is HT-29 human colon tumor. As to the kind of experiment: HT-29 Human Colon Tumor Xenograft Model. Type of series: in vivo. How it is done:
as §2, §3
Animals were implanted subcutaneously (s.c.) by trocar with fragments of HT-29 tumors harvested from s.c. growing tumors in nude mice hosts. When the tumor size reached 5 mm×5 mm (about 10-17 days) the animals were matched into treatment and control groups. Mice were weighed twice weekly and tumor measurements were obtained using calipers twice weekly, starting on Day 1. The tumor measurements were converted to estimated mg tumor weight using the formula (W^2×L)/2. When the estimated tumor weight of the control group reached an average of 1000 mg the mice were weighed, sacrificed and the tumor removed.

In series [9] the test system is P22 rat sarcoma. As to the kind of experiment: Tumor necrosis in the P22 rat sarcoma model. The note with it: 7.5 and 15 mg/kg IP, 24 hours post-dose.
Series [10] has as its system MDA-231 human breast tumor. Nature of the series: MDA-231 Human Breast Tumor Orthotopic Xenograft Model (mammary fat pad). Type of series: in vivo, nude mice. The note with it: Breast MDA-231 (1 study); KPU-02 7.5 mg/kg ip Days 1, 4, 8, 11, 15 + Paclitaxel qdx5. How it is done: The animals used were: female nude mice (nu/ni) (MDA-231 study) or B6D2F1 (B16-F10 studies) mice between 5 and 6 weeks of age (˜20 g, Harlan); group size was 10 mice per group unless otherwise indicated.
The cell lines used were: MDA-MB-231 human breast tumor and B16-F10 murine melanoma cells.
NPI compounds were administered as monotherapy via the intraperitoneal route at the doses indicated for the individual study; for the combination studies the selected reference chemotherapy agents were injected 15-30 min prior to the NPI compound.
Female nude mice were injected in the mammary fat pad with 2×10^6 MDA-231 cells harvested from in vitro cell culture. When the tumor size reached 5 mm×5 mm (about 14-28 days) the animals were matched into treatment and control groups. The study then proceeded as described for the HT-29 model, using paclitaxel as the standard chemotherapy agent.
In this model unless otherwise noted for the individual study, the test compounds were administered via the intraperitoneal route on Days 1, 4, 8, 11 and 15 (q3dx5); paclitaxel was administered via the intraperitoneal route on Days 1-5 (qdx5).
This model involves the placement of the human tumor tissue into the mouse mammary fat pad, a surrogate of the natural environment. In this manner the possibility of a positive effect due to a specific action on the subcutaneous vascular bed is avoided.

Series [11] relates to HuVEC cells. Nature of the series: Tubulin staining assay, 200 nM, 30 min (Example 15). It is filed as cell-based, human.
Protocol: Human umbilical vein endothelial cells (HuVECs; Cambrex CC2519A) were maintained at subconfluent densities in EGM-2 (Cambrex) media. […] For tubulin staining assays, HuVEC cells were seeded at a density of 3×10^4 cells/ml in EGM-2 on tissue culture compatible coverslips (Fisher). The plates were returned to the incubator for 2 days.
Stock (20 mM) solutions of the test compounds were prepared in 100% DMSO. 400× concentrated dilutions of the compounds were prepared in 100% DMSO. 5 μl volumes of the dilutions were added to individual wells resulting in a final concentration of 200 nM. […] The plates were returned to the incubator for 30 minutes.
The cells were rinsed in dPBS before fixation in 10% (v/v) neutral buffered formalin for 10 minutes at room temperature. Following fixation, α-tubulin was visualized by indirect immunofluorescence. Specifically, the cells were permeabilized in 0.2% (v/v) triton X-100/dPBS for 10 minutes. The cells were washed prior to transferring the coverslips to a humidified chamber, the coverslips were blocked for two hours in antibody buffer (2% (w/v) BSA/0.1% (v/v) Tween 20/dPBS). The coverslips were incubated with 50 μl of 0.1 μg/ml mouse α-tubulin (Molecular Probes) in antibody buffer for 1 hour before washing and incubation with 50 μl of 1 μg/ml goat anti-mouse FITC (Jackson ImmunoResearch Laboratories) for one hour in the dark. […]
In series [12] the test system is bovine brain microtubule protein. As to the kind of experiment: Tubulin polymerization assay, turbidity (Example 21). Type of series: biochemical. The note with it: 5 μM in 1% DMSO. As to the method: Polymerization of bovine brain microtubule protein (Cytoskeleton, Inc., Denver, Colo.) was monitored by an increase in turbidity at 37° C. in microtubule buffer (80 mM PIPES, pH 6.8, 1 mM MgCl2, 1 mM EGTA, 1 mM GTP, 10% glycerol). […] Turbidity was measured as an increase in optical density at 340 nm with a thermo-controlled spectrophotometer (model 680XR microplate Reader™, Bio-Rad Laboratories).

Series [13] deals with HT-29 human colon cells. As to the kind of experiment: Tumor cytotoxicity assay, resazurin fluorescence, 48 h (Example 6). Type of series: cell-based. The note with it: Example 23. In general terms: The colour change of resazurin is a common sign of viable cells or microbes.
Series [14] has as its target tubulin (Bos taurus, UniProt Q6B856). Nature of the series: Photoaffinity labeling study of tubulin. Type of series: binding. The note with it: UV 365 nm, +/- colchicine. An excerpt: KPU-244 and KPU-244-B1 can both be photoactivated by UV light, resulting in covalent linkage to any protein via the photoreactive benzophenone group. In one embodiment, tubulin is photoaffinity labeled with KPU-244 or KPU-244-B1. Upon irradiation with UV light, the benzophenone group forms a free radical at the carbonyl group, followed by H-abstraction in the acceptor protein, insertion of the benzophenone radical into the abstracted site, and recombination to form the labeled protein.
UV-irradiated and control samples were visualized by 15% SDS-PAGE followed by Western blotting. Biotin-labeled molecular weight markers (Amersham Pharmacia Biotech) were included in each gel. Each gel was electroblotted onto a nitrocellulose membrane (Hybond-ECL, Amersham Pharmacia). The gels were then stained with Coomassie Brilliant Blue (Bio-Rad laboratories) to verify that equivalent amounts of tubulin were loaded in each lane. The nitrocellulose membrane was incubated with 5% skim milk in 100 mM phosphate-buffered saline (PBS, pH 7.4) at room temperature for 1 hour, then washed with 100 mM PBS (pH 7.4) containing 0.1% Tween 20 (PBS-T) for 20 min one time, then twice for 10 min each. The membrane was then incubated with streptavidin-horseradish peroxidase conjugate (diluted 1000-fold with PBS-T) for 1 hour at room temperature, and washed with PBS-T as described above. […]

Molecules are shown by their SMILES. Like-named read-outs stand apart in the source and are kept apart here.

Sequence of tubulin (Q6B856 whole entry): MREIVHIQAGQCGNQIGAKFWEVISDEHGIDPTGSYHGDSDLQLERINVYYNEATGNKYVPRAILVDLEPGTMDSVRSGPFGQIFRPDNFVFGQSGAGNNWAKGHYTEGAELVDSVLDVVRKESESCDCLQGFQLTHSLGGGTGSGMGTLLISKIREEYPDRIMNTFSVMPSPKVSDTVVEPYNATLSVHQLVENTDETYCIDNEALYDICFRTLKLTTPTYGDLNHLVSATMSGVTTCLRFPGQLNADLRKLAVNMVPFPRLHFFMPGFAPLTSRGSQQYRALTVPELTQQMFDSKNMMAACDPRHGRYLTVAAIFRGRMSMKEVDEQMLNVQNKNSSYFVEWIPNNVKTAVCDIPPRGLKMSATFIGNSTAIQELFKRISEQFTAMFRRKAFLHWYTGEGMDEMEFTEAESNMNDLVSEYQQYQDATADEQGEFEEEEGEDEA
Sequence of tubulin (P81947 whole entry, further chain): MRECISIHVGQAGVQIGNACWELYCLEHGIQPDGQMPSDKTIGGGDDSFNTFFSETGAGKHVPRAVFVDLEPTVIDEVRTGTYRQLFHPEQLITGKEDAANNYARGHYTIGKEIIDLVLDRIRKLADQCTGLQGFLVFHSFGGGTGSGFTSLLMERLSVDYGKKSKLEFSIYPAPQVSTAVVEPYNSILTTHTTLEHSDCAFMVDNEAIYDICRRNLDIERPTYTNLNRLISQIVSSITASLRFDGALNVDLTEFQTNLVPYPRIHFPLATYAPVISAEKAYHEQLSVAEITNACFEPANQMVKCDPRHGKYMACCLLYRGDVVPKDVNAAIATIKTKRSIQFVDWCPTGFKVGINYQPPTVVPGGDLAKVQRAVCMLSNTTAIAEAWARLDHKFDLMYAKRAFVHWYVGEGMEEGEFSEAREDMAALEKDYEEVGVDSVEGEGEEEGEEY

Take `CC(C)(C)c1[nH]cnc1/C=c1\[nH]c(=O)/c(=C/c2ccccc2)[nH]c1=O` [KPU-02]: the “Tumor Regression (#/total) NPI + Reference” value is 3/20 in series [1]; 0/10 in series [6]; 4/30 in [8] (ip, 7.5 mg/kg); 0/10 in [10]. Besides, the tolerability result in series [2] (i.v. infusion 5-10 mg/kg) was “well tolerated”. For the same molecule, the “effect on tumor vasculature” value in [2] (single i.v. treatment) was “rapid collapse of the central vasculature”. Also, the tumor blood flow is 23 % of vehicle in [3] (1 hour after administration) and 59 % vehicle in series [3] (24 hours later). The “mitotic cells containing asters or foci of tubulin” value in series [4] came to 75%. Further, the MT dynamic instability result in [5] is “did not have a measurable effect on MT dynamic instability”. Also, the “Tumor Growth Inhibition (%) KPU-02 + Reference” value amounted to 74% in series [6] and 71% in series [10]. Also, the MT nucleation result in series [7] is recorded as “did not affect MT nucleation”. In addition, in series [8] (with CPT-11), the “dose-dependent effect in the HT-29 model” value is on record as 7.5 mg/kg was statistically greater than 2.5 mg/kg. Also, the tumor necrosis result in [9] is given as “dose-dependent tumor necrosis”. The “tubulin depolymerization in HuVEC cells” value in series [11] is on record as “rapidly induce tubulin depolymerization”.

As for `CC(C)(C)c1ocnc1/C=c1\[nH]c(=O)/c(=C/c2cccc(C(=O)c3ccc(CNC(=O)CCCC[C@@H]4SC[C@@H]5NC(=O)N[C@@H]54)cc3)c2)[nH]c1=O` [KPU-244-B1], in series [12], the tubulin polymerization entry is “inhibit tubulin polymerization”. For the same molecule, the IC50 (commonly the point on the concentration scale where inhibition reaches its midpoint) in series [13] is 910 nM. In addition, in [14], the “binding to tubulin by photoaffinity labeling” value was “selectively binds and covalently reacts with tubulin at the colchicine binding site”.
